Laboratory results: ChEMBL document CHEMBL2034833, “Synthesis of chalcone-amidobenzothiazole conjugates as antimitotic and apoptotic inducing agents” (Bioorg Med Chem, 2012)
The source made the active and inactive calls. No cut-off for these calls is given here.

How the values were obtained:
MCF7 = assay: cells; settings: Homo sapiens, MCF7, 48 h
Description: Cytotoxicity against human MCF7 cells after 48 hrs by MTT assay

HT-29 = assay: Cytotoxicity against human HT-29 cells after 48 hrs by MTT assay; type: functional, cell-based; settings: HT-29, 48 h, read-out: IC50
A-375 = assay: Cytotoxicity against human A375 cells after 48 hrs by MTT assay; type: functional, cell-based; settings: A-375, 48 h
A549 [1] = assay: cells; settings: Homo sapiens, A549, 48 h
Description: Cytotoxicity against human A549 cells after 48 hrs by MTT assay

ACHN = assay: Cytotoxicity against human ACHN cells after 48 hrs by MTT assay; type: functional, cell-based
A549 [2] = assay: Cell cycle arrest in human A549 cells assessed as cell accumulation at subG1 phase at 2 uM after 48 hrs by propidium iodide staining based flow cytometry (reference value: […]); type: functional
[3] = Inhibition of tubulin polymerization at 3 uM after 1 hr by fluorescence assay
[4] = Inhibition of tubulin polymerization after 1 hr by fluorescence assay
Tubulin (Homo sapiens) = Tubulin (Homo sapiens) (UniProt P68371+Q9H4B7+P0DPH7+P68366+Q13509+Q71U36+P04350+Q3ZCM7+P07437+P68363+Q9BQE3+Q6PEY2+Q13885+Q9BVA1+Q9BUF5); assay: Inhibition of tubulin polymerization in human A549 cells assessed as disrupted microtubule organization at 2 uM after 48 hrs by immunohistochemistry analysis; type: cell-based
A549 [5] = assay: Cell cycle arrest in human A549 cells assessed as cell accumulation at G0/G1 phase at 2 uM after 48 hrs by propidium iodide staining based flow cytometry (reference value: 70.15%); type: functional
A549 [6] = assay: Induction of apoptosis in human A549 cells assessed as increase in caspase3 activity using AFC-conjugated Ac-DEVD as substrate at 2 uM after 48 hrs by fluorescence assay relative to control; type: functional
A549 [7] = assay: Cell cycle arrest in human A549 cells assessed as cell accumulation at G2/M phase at 2 uM after 48 hrs by propidium iodide staining based flow cytometry (reference value: 23.75%); type: functional

SMILES	IC50 (MCF7)	IC50 (HT-29)	IC50 (A-375)	IC50 (A549 [1])	IC50 (ACHN)	Activity (A549 [2])	inhibition [3]	IC50 [4]	inhibition (Tubulin (Homo sapiens))	Activity (A549 [5])	fold change (FC) (A549 [6])	Activity (A549 [7])
COc1ccc(/C=C/C(=O)c2cc(OC)c(OC)c(OC)c2)cc1OCC(=O)Nc1nc2c(C)cccc2s1	2500 nM	6100 nM	2800 nM	5100 nM	3800 nM							
COc1ccc(/C=C/C(=O)c2cc(OC)c(OC)c(OC)c2)cc1O	120 nM	1900 nM	190 nM	760 nM	1620 nM	12.34%	62.6%	3700 nM	Active	18.59%	6	55.47%
